Assay results taken from PMC7347136 (PLoS ONE, 2020).
Read-outs that look alike come from different tables or passages of the source.

Tests used:
[1] = molecular target: T1, HER4 (Homo sapiens, UniProt Q15303); experiment: Carna kinase panel screen; type: biochemical; settings: read-out: % Inhibition ± SD
T1 construct: purchased Carna Biosciences
Experimental: (§1) IC50 values were determined from a 10-point concentration curve using ATP concentrations approximating Km values. […] The percentage inhibition of each test solution was calculated, which allowed the IC50 value to be determined from concentration versus percentage inhibition curves by fitting to a four parameter logistic curve.

[2] = molecular target: T2, LCK (Homo sapiens, UniProt P06239); experiment: Carna kinase panel screen; type: biochemical; settings: read-out: % Inhibition ± SD
T2 construct: purchased Carna Biosciences
Experimental: as §1

[3] = molecular target: T3, TRKA (Homo sapiens, UniProt P04629); experiment: Carna kinase panel screen; type: biochemical; settings: read-out: % Inhibition ± SD
T3 construct: purchased Carna Biosciences
Experimental: as §1

[4] = molecular target: T4, PDGFRa (Homo sapiens, UniProt P16234); experiment: Carna kinase panel screen; type: biochemical; settings: read-out: % Inhibition ± SD
T4 construct: purchased Carna Biosciences
Experimental: as §1

[5] = molecular target: T5, MAP2K7 (Homo sapiens, UniProt O14733); experiment: Carna kinase panel screen; type: biochemical; settings: read-out: % Inhibition ± SD
T5 construct: purchased Carna Biosciences
Experimental: as §1

[6] = molecular target: T6, MARK1 (Homo sapiens, UniProt Q9P0L2); experiment: Carna kinase panel screen; type: biochemical; settings: read-out: % Inhibition ± SD
T6 construct: purchased Carna Biosciences
Experimental: as §1

[7] = molecular target: T7, CDK4 (Homo sapiens, UniProt P11802); experiment: Carna kinase panel screen; type: biochemical; settings: read-out: % Inhibition ± SD
T7 construct: purchased Carna Biosciences
Experimental: as §1

[8] = molecular target: T8, HER2 (Homo sapiens, UniProt P04626); experiment: Carna kinase panel screen; type: biochemical; settings: read-out: % Inhibition ± SD
T8 construct: purchased Carna Biosciences
Experimental: as §1

[9] = molecular target: T9, EphA3 (Homo sapiens, UniProt P29320); experiment: Carna kinase panel screen; type: biochemical; settings: read-out: % Inhibition ± SD
T9 construct: purchased Carna Biosciences
Experimental: as §1

[10] = molecular target: T10, EphA4 (Homo sapiens, UniProt P54764); experiment: Carna kinase panel screen; type: biochemical; settings: read-out: % Inhibition ± SD
T10 construct: purchased Carna Biosciences
Experimental: as §1

[11] = molecular target: T11, PBK (Homo sapiens, UniProt Q96KB5); experiment: Carna kinase panel screen; type: biochemical; settings: read-out: % Inhibition ± SD
T11 construct: purchased Carna Biosciences
Experimental: as §1

[12] = molecular target: T12, MST1 (Homo sapiens, UniProt Q13043); experiment: Carna kinase panel screen; type: biochemical; settings: read-out: % Inhibition ± SD
T12 construct: purchased Carna Biosciences
Experimental: as §1

[13] = molecular target: T13, EGFR[L858R] (Homo sapiens, UniProt P00533, L858R); experiment: Carna kinase panel screen; type: biochemical; settings: read-out: % Inhibition ± SD
T13 construct: purchased Carna Biosciences
Experimental: as §1

[14] = molecular target: T14, JNK1 (Homo sapiens, UniProt P45983); experiment: Carna kinase panel screen; type: biochemical; settings: read-out: % Inhibition ± SD
T14 construct: purchased Carna Biosciences
Experimental: as §1

[15] = molecular target: T15, PKCi (Homo sapiens, UniProt P41743); experiment: Carna kinase panel screen; type: biochemical; settings: read-out: % Inhibition ± SD
T15 construct: purchased Carna Biosciences
Experimental: as §1

[16] = molecular target: T16, JNK3 (Homo sapiens, UniProt P53779); experiment: Carna kinase panel screen; type: biochemical; settings: read-out: % Inhibition ± SD
T16 construct: purchased Carna Biosciences
Experimental: as §1

[17] = molecular target: T17, MAP2K6 (Homo sapiens, UniProt P52564); experiment: Carna kinase panel screen; type: biochemical; settings: read-out: % Inhibition ± SD
T17 construct: purchased Carna Biosciences
Experimental: as §1

[18] = molecular target: T18, MAP3K5 (Homo sapiens, UniProt Q99683); experiment: Carna kinase panel screen; type: biochemical; settings: read-out: % Inhibition ± SD
T18 construct: purchased Carna Biosciences
Experimental: as §1

[19] = molecular target: T19, MLK2 (Homo sapiens, UniProt Q02779); experiment: Carna kinase panel screen; type: biochemical; settings: read-out: % Inhibition ± SD
T19 construct: purchased Carna Biosciences
Experimental: as §1

[20] = molecular target: T20, HIPK2 (Homo sapiens, UniProt Q9H2X6); experiment: Carna kinase panel screen; type: biochemical; settings: read-out: % Inhibition ± SD
T20 construct: purchased Carna Biosciences
Experimental: as §1

[21] = molecular target: T21, EGFR (Homo sapiens, UniProt P00533); experiment: Carna kinase panel screen; type: biochemical; settings: read-out: % Inhibition ± SD
T21 construct: purchased Carna Biosciences
Experimental: as §1

[22] = molecular target: T22, PYK2 (Homo sapiens, UniProt Q14289); experiment: Carna kinase panel screen; type: biochemical; settings: read-out: % Inhibition ± SD
T22 construct: purchased Carna Biosciences
Experimental: as §1

[23] = system: H23; experiment: Resazurin reduction cell viability assay; type: cell-based, human; settings: 6 h pulse
[24] = system: HCC1954; experiment: Resazurin reduction cell viability assay; type: cell-based; settings: Homo sapiens
Experimental: (§2) Solid tumor cell lines were seeded in 100 μl medium into 96-well plates at an appropriate cell number determined by a cell dilution assay (Cal51–2000 cells/well; Colo205, MCF10A and 184A1–3000 cells/well and MDA-MB-468, HCC1954–4000 cells/well). AML suspension cells were seeded in 96-well plates at approximately 3000 cells per well. Cells were incubated overnight at 37°C, 5% CO2. The following day, 100 μl fresh medium containing increasing concentrations of appropriate compound was added and the cells were incubated for up to 72 h at 37°C, 5% CO2. For pulse treatment of solid (adherent) tumor cell lines, medium was aspirated and replaced with fresh drug-free medium. For pulse treatment of suspension lines, plates were centrifuged at 478 xg for 5 min at the end of the incubation period with compound, medium containing compound was carefully aspirated and replaced with fresh compound-free medium. A total of 72 h after the start of treatment, 20 μl of a 10X stock of resazurin sodium salt (Sigma-Aldrich, Dorset, UK) prepared in medium was added to the cells and incubated for up to 3 h. […] was measured on the Wallac Victor plate reader (Cambridge, UK) at 544–595 nm. IC50/70/90 calculations were determined in XLFit.

[25] = system: MDA-MB-468; experiment: Resazurin reduction cell viability assay; type: cell-based; settings: Homo sapiens
Experimental: as §2

[26] = system: HL60; experiment: Resazurin reduction cell viability assay; type: cell-based; settings: Homo sapiens
Experimental: as §2

[27] = system: Kasumi-1; experiment: Resazurin reduction cell viability assay; type: cell-based; settings: Homo sapiens
Experimental: as §2

[28] = system: ML-2; experiment: Resazurin reduction cell viability assay; type: cell-based; settings: Homo sapiens
Experimental: as §2

[29] = system: EOL-1; experiment: Resazurin reduction cell viability assay; type: cell-based; settings: Homo sapiens
Experimental: as §2

[30] = system: Nomo-1; experiment: Resazurin reduction cell viability assay; type: cell-based; settings: Homo sapiens
Experimental: as §2

[31] = system: Cal51; experiment: Resazurin reduction cell viability assay; type: cell-based; settings: Homo sapiens
Experimental: as §2

[32] = 72 h continuous, read-out: 72 h continuous IC50 ± SD
[33] = read-out: 6 h pulse IC50 ± SD, 6 h pulse then 66 h release

T16 sequence (P53779 whole entry): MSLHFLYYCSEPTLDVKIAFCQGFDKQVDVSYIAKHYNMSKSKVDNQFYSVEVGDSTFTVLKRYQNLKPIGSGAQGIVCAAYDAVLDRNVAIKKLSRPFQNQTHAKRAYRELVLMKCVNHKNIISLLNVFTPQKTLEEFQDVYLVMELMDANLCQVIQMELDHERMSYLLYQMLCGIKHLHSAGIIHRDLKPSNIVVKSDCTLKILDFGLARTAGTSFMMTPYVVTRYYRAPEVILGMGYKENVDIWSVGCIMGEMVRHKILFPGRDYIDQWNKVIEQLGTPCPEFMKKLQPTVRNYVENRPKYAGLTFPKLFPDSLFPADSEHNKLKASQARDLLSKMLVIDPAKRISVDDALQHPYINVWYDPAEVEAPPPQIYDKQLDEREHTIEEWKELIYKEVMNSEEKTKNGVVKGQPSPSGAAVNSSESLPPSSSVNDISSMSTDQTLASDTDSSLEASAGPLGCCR
T8 sequence (P04626 23-1255): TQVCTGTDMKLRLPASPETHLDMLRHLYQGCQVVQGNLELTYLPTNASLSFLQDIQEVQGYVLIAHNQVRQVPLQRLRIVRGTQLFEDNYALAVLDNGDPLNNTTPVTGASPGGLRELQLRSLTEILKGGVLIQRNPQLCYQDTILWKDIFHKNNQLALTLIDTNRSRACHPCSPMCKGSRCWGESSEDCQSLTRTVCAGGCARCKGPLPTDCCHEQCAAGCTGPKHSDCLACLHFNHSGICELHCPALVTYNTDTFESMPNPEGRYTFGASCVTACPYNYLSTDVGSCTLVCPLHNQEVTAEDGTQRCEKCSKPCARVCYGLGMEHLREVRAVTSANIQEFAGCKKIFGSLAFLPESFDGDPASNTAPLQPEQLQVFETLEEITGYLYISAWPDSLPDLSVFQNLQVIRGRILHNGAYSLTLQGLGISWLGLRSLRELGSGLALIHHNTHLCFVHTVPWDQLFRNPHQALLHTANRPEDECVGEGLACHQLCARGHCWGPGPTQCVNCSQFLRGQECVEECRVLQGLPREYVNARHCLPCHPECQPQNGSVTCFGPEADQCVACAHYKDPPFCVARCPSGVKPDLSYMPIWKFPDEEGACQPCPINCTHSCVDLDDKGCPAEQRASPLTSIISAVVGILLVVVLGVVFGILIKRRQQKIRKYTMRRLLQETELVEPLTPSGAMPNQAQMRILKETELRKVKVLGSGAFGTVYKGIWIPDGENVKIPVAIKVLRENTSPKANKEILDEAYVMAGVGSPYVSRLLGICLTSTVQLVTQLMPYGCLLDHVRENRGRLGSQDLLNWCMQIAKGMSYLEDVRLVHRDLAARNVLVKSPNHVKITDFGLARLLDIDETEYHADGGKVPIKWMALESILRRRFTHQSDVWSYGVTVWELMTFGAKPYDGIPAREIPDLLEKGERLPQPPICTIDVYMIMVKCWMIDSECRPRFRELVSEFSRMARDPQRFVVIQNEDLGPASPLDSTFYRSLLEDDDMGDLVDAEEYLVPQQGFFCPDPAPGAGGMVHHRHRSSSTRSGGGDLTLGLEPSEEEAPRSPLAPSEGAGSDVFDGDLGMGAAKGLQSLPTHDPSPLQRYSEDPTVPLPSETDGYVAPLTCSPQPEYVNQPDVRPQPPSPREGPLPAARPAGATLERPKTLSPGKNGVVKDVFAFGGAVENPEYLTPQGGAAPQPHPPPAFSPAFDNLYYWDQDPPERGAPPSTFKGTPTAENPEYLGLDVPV
T7 sequence (P11802 whole entry): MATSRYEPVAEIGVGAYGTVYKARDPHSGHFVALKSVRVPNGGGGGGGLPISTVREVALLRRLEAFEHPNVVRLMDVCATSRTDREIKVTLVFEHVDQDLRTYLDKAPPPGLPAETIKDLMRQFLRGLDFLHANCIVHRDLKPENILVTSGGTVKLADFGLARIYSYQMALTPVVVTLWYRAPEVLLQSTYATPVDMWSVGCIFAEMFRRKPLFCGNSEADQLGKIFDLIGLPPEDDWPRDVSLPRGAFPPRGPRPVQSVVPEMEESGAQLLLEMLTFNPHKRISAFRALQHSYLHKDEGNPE
T7 sequence (P30281 whole entry partner): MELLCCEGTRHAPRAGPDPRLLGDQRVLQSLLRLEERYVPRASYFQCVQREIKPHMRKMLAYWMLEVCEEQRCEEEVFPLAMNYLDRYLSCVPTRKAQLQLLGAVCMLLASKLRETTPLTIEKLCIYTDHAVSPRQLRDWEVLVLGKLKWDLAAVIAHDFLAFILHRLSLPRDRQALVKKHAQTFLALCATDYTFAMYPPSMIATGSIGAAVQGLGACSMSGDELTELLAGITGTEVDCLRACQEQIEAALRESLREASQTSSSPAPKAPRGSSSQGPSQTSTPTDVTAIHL
T11 sequence (Q96KB5 whole entry): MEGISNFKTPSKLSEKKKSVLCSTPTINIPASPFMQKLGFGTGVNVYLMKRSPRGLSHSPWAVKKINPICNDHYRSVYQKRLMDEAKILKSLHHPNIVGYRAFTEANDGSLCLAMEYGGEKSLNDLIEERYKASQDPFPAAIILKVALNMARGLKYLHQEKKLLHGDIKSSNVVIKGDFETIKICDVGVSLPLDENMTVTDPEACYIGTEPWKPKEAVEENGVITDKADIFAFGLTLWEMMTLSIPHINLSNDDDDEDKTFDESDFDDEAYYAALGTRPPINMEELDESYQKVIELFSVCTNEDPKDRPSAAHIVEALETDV
T2 sequence (P06239 whole entry): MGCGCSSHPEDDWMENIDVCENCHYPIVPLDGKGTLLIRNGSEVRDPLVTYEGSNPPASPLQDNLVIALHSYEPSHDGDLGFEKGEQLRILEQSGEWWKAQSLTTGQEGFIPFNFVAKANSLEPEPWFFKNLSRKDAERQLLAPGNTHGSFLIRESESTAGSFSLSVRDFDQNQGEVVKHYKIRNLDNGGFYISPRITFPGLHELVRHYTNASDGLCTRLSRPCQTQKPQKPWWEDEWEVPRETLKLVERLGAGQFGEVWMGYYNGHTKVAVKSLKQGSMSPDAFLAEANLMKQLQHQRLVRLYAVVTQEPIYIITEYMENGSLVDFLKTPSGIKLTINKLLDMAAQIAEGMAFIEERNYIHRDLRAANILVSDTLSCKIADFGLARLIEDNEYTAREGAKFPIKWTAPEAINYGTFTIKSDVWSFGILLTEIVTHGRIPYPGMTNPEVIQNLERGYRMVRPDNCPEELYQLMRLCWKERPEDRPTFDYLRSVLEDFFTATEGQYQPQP
T13 sequence (P00533 25-1210 L858R): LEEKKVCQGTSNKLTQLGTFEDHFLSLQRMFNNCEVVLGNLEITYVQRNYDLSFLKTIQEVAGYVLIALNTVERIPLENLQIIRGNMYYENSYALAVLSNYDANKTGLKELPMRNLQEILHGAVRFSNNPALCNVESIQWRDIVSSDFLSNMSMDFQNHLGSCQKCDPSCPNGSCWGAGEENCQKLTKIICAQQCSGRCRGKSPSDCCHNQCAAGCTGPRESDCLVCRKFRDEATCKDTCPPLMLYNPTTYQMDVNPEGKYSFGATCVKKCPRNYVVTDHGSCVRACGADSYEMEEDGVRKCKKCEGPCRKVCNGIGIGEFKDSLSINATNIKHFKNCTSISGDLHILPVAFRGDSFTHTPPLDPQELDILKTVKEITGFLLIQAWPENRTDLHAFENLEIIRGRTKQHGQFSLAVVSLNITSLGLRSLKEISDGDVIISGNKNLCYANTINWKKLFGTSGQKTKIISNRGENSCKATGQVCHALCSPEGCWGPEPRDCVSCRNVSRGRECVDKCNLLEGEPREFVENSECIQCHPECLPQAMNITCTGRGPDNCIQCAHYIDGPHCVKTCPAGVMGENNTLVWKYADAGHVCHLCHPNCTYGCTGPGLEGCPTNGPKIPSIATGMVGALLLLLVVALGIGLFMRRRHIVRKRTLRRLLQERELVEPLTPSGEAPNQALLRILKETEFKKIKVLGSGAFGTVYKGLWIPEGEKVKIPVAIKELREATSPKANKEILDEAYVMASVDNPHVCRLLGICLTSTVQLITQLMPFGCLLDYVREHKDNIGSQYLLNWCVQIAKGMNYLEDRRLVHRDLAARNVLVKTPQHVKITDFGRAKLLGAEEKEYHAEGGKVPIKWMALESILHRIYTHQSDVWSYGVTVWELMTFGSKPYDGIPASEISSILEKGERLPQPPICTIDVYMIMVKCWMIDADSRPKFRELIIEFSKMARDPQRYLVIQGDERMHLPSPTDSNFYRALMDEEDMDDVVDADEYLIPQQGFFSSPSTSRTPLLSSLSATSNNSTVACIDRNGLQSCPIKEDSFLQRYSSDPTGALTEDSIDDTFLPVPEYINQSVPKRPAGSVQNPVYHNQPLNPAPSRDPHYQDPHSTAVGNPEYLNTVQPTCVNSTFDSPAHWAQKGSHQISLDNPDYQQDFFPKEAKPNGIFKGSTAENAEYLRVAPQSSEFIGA
T17 sequence (P52564 whole entry): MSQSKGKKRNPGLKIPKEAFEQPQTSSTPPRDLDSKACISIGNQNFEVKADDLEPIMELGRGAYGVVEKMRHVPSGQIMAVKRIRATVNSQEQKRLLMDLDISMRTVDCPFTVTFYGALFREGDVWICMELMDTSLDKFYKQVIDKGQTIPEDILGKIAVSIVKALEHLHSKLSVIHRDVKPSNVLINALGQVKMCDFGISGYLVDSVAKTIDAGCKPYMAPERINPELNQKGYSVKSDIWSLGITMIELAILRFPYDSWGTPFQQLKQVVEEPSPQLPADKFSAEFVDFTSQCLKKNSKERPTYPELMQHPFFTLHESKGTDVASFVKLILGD

## CC[C@H](Nc1nc(NCc2cnc(C)cc2C)c2ncn(C(C)C)c2n1)[C@@H](C)O [Fadraciclib, 2-pentanol, 3-[[6-[[(4,6-dimethyl-3-pyridinyl)methyl]amino]-9-(1-methylethyl)-9Hpurin-2-yl]amino]-, (2R,3S)]
[1]
  inhibition at 1 µM: -13 ± 0.3%
[2]
  inhibition at 1 µM: -7.3 ± 0.1%
[3]
  inhibition at 1 µM: -10.3 ± 0.3%
[4]
  inhibition at 1 µM: 5.8 ± 0.2%
[5]
  inhibition at 1 µM: -10.6 ± 0.6%
[6]
  inhibition at 1 µM: -9.7 ± 0.1%
[7]
  inhibition at 1 µM: 75.7 ± 5%
[8]
  inhibition at 1 µM: -17.6 ± 1%
[9]
  inhibition at 1 µM: 1.6 ± 0.1%
[10]
  inhibition at 1 µM: 1%
[11]
  inhibition at 1 µM: -0.9%
[12]
  inhibition at 1 µM: 4 ± 0.1%
[13]
  inhibition at 1 µM: 1.7%
[14]
  inhibition at 1 µM: -13.5 ± 1.3%
[15]
  inhibition at 1 µM: -13.6 ± 0.5%
[16]
  inhibition at 1 µM: 10.6 ± 0.6%
[17]
  inhibition at 1 µM: 0.7%
[18]
  inhibition at 1 µM: 5.2 ± 0.2%
[19]
  inhibition at 1 µM: 0.6%
[20]
  inhibition at 1 µM: 2.5 ± 0.1%
[21]
  inhibition at 1 µM: -10.8 ± 0.4%
[22]
  inhibition at 1 µM: 11.7 ± 0.2%
[23]
  IC50, short pulse: submicromolar
[24]; read-out: 8 h pulse IC50 ± SD, HCC1954 (HER2 amplified), 8 h pulse, read at 72 h
  IC50: 480 ± 50 nM
[24]; HCC1954, continuous 72 h, read-out: continuous IC50 ± SD
  IC50: 400 ± 30 nM
[25]; read-out: 8 h pulse IC50 ± SD, MDA-MB-468 (TNBC), 8 h pulse, read at 72 h
  IC50: 990 ± 340 nM
[25]; MDA-MB-468, continuous 72 h, read-out: continuous IC50 ± SD
  IC50: 380 ± 170 nM
[26]; HL-60, 6 h pulse then 66 h release
  IC90: 1600 nM
[26]; HL-60, 72 h continuous, read-out: 72 h continuous IC50 ± SD
  IC50: 440 ± 70 nM
[26]; HL-60, read-out: 6 h pulse IC50 ± SD, 6 h pulse then 66 h release
  IC50: 790 ± 140 nM
[27]; 6 h pulse then 66 h release
  IC90: 570 nM
[27]; [32]
  IC50: 230 ± 40 nM
[27]; [33]
  IC50: 320 ± 50 nM
[28]; 6 h pulse then 66 h release
  IC90: 590 nM
[28]; [32]
  IC50: 190 ± 50 nM
[28]; [33]
  IC50: 330 ± 120 nM
[29]; EOL1, 6 h pulse then 66 h release
  IC90: 560 nM
[29]; EOL1, 72 h continuous, read-out: 72 h continuous IC50 ± SD
  IC50: 370 ± 50 nM
[29]; EOL1, read-out: 6 h pulse IC50 ± SD, 6 h pulse then 66 h release
  IC50: 350 ± 50 nM
[30]; 6 h pulse then 66 h release
  IC90: 1800 nM
[30]; [32]
  IC50: 290 ± 50 nM
[30]; [33]
  IC50: 660 ± 110 nM
[31]; CAL-51, read-out: 8 h pulse IC50 ± SD, Cal51 (TNBC), 8 h pulse, read at 72 h
  IC50: 680 ± 200 nM
[31]; CAL-51, Cal51, continuous 72 h, read-out: continuous IC50 ± SD
  IC50: 230 ± 40 nM
